Where a name gives a salt, the structure may show the parent alone.
target: T1, glucan synthase (GS) prepared from Candida albicans MY1055 (Candida albicans, UniProt O13428); test: Glucan synthase inhibition (polymerization assay, 96-well, 3H-UDPG incorporation); assay type: biochemical; conditions: glucan synthase from C. albicans MY1055
T1 construct: Extraction of GS activity from membranes was performed at a protein concentration of 5 mg/mL in extraction buffer; endogenous in cells; host or cells: Candida albicans MY1055 (membranes, detergent extract, product entrapment)
Procedure: The in vitro evaluation of glucan synthase inhibitory activity of compounds was measured in a polymerization assay in 96-well format. Each well contained 100 μL of ^3H-UDPG at 0.5 mM (6000 to 8000 dpm/nmol), 50 mM HEPES pH 7.5 (Sigma), 10% w/v glycerol (Sigma), 1.5 mg/mL bovine serum albumin (Sigma A 9647. Lot 44H0190), 25 mM KF (Fisher), 1 mM EDTA (Gibco Ultrapure), 25 μM GTP-γ-S, enzyme sufficient to give 3 to 6 nmoles incorporation during the 60 min incubation at 22° C., and test compound added from wells in 3-fold serial dilutions in 100% DMSO (1 μL/well). The reaction was stopped by the addition of 100 μL of 20% trichloroacetic acid. Plates were chilled for a minimum of 10 min, and precipitated glucan collected by filtration on GF/C plates (Packard Unifilter®-96), washed with 5 cycles of water (about 1 mL/well each cycle) using a Packard Filtermate Harvester. 40 μL/well scintillation fluid (Packard Ultima Gold TM-XR) was added and the sealed plates counted in a Wallac Beta counter in top-counting mode at an efficiency of approximately 40%.
Stock solutions were stored at 10 mg/mL in DMSO at −20° C. For each new enzyme preparation, the initial titration performed started at 1 mg/mL, which was prepared by making a 10-fold dilution in DMSO (5 μL to 50 μL). 40 μL of this stock was placed in column 12 of a round-bottomed 96-well microtiter plate. 40 μL DMSO was added to columns 1 to 11 in the same row and ten 3-fold serial dilutions performed, by transferring 20 μL from column 12 to column 11 etc., with 4 mixings before each transfer. No test compound was transferred to from column 2 to column 1. Duplicate aliquots of 1 μL of all 12 dilutions were then transferred to the side walls of a 96-well Bioblock 1.1 mL plate (Fisherbrand) to create two rows.
The results were tabulated and a standard plate background was subtracted and the net count transpose-pasted into a Prism file, with final compound concentrations used in ng/mL. Graphs were created in Prism software, using the average of two determinations, and using Prism's curve fitting program (sigmoidal dose response non-linear regression).
Routine analysis was performed with glucan synthase (GS) prepared from Candida albicans MY1055 by the following procedure: MY1055 was grown in 10 liters YPD medium (10 g yeast extract, 20 g tryptone, 20 g glucose per liter) with vigorous shaking at 30° C., to early stationary phase. Cells were harvested by centrifugation, the pellet was washed and frozen at −70° C. until breakage. Thawed pellets were shaken with an equal volume of breakage buffer (50 mM HEPES pH 7.4, 10% glycerol, 1 mM EDTA, 1 mM PMSF, 1 mM DTT) and 4 times their weight of 0.5 mm acid washed glass beads for 2 hours at 4° C. Extent of breakage was assessed visually at 40× magnification. For C. parapsilosis strains, shaking was extended to 3 hours to maximize breakage. After low speed centrifugation to remove cell debris, the supernatant was centrifuged at 100,000×g for 60 min. to separate membranes plus ribosomes from cytoplasmic components. Membranes were further washed two additional times with breakage buffer using the same centrifugation conditions and finally suspended in breakage buffer at 25 to 30 mg/mL protein (Biorad) for storage at −70° C. Extraction of GS activity from membranes was performed at a protein concentration of 5 mg/mL in extraction buffer (50 mM NaPO4 pH 7.5, 0.1 M KCl, 0.1M Na citrate, 20% glycerol, 5 μM GTP-γ-S, 1 mM DTT, 1 mM PMSF, 3 μg/mL pepstatin) plus 0.25% W1 by gentle mixing at 4° C. for 60 min, followed by centrifugation at 100,000×g for 60 min. After centrifugation, clear supernatant was removed from a pellet consisting of a hard layer usually with small amounts of gelatinous unextracted membranes above it. […]

T1 sequence (O13428 1-1897): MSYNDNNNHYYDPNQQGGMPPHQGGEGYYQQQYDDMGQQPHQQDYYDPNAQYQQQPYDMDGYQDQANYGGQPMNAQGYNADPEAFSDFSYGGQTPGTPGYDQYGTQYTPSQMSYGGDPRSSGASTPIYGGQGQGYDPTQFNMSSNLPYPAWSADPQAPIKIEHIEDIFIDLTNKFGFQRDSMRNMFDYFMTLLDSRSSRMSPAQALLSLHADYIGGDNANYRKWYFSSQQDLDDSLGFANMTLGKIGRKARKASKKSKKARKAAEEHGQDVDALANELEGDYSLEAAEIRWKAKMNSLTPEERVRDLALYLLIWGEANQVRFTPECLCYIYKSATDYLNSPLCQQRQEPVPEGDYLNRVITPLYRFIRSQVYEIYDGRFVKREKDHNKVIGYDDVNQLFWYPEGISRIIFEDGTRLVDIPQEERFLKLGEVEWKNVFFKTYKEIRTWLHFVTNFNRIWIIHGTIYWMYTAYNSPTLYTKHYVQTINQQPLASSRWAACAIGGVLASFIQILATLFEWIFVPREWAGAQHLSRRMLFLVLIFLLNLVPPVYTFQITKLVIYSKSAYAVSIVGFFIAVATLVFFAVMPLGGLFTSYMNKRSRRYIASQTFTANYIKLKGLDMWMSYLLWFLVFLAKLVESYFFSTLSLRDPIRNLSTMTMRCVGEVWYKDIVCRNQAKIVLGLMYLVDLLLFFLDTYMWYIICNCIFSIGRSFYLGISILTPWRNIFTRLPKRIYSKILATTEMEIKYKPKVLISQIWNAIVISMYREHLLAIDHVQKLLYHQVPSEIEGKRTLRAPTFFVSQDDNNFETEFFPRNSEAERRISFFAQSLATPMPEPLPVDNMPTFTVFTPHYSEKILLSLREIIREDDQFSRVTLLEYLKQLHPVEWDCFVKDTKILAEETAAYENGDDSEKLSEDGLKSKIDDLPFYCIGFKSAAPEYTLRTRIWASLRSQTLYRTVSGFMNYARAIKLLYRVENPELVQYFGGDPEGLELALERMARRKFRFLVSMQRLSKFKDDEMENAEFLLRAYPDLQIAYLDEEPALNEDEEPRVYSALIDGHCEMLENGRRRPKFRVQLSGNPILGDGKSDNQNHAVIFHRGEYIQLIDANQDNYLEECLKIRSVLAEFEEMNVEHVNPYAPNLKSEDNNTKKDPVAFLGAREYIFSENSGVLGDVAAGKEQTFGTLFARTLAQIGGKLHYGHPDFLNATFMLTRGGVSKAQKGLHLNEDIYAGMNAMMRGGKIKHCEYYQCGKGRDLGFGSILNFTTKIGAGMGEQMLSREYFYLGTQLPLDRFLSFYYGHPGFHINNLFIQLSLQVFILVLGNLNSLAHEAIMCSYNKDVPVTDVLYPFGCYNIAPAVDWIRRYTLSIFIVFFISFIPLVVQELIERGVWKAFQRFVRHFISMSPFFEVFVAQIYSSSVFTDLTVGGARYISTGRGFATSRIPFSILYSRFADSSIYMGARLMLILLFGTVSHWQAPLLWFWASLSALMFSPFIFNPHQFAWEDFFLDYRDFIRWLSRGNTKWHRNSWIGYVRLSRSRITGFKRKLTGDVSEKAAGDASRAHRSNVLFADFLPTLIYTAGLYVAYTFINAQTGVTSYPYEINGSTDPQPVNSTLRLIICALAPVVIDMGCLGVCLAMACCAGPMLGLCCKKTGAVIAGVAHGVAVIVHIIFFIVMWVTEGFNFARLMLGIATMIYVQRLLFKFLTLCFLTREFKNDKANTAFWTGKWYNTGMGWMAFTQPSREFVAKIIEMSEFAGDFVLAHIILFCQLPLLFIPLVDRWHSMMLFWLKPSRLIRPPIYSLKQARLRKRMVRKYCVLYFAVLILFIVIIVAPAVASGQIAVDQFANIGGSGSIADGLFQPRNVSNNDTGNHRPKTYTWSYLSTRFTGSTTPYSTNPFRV
T1 sequence (O42825 whole entry partner): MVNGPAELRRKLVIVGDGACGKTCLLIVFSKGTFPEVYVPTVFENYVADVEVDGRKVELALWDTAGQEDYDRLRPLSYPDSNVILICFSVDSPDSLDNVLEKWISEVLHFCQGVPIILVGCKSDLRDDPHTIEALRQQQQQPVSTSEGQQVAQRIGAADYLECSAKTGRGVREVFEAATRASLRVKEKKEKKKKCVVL

`CC(=O)O[C@@H]1C[C@@]23COC[C@](C)([C@@H]2CC[C@H]2C3=CC(=O)[C@@]3(C)[C@H](C(=O)O)[C@@](C)([C@H](C)C(C)C)CC[C@]23C)[C@H]1OC[C@](C)(N)C(C)C` [Example 151, (1S,2R,3R,4aR,6aS,7R,8R,10aR,10bR,12aR)-3-acetoxy-2-[[(2R)-2-amino-2,3-dimethylbutyl]oxy]-8-[(1R)-1,2-dimethylpropyl]-1,6a,8,10a-tetramethyl-6-oxo-1,3,4,6,6a,7,8,9,10,10a,10b,11,12,12a-tetradecahydro-2H-1,4a-(methanooxymethano)chrysene-7-carboxylic acid (fumaric acid salt)] and `CN[C@@](C)(CO[C@H]1[C@H](OC(C)=O)C[C@@]23COC[C@]1(C)[C@@H]2CC[C@H]1C3=CC(=O)[C@@]2(C)[C@H](C(=O)O)[C@@](C)([C@H](C)C(C)C)CC[C@]12C)C(C)C` [Example 152, (1S,2R,3R,4aR,6aS,7R,8R,10aR,10bR,12aR)-3-acetoxy-2-[[(2R)-2-methylamino-2,3-dimethylbutyl]oxy]-8-[(1R)-1,2-dimethylpropyl]-1,6a,8,10a-tetramethyl-6-oxo-1,3,4,6,6a,7,8,9,10,10a,10b,11,12,12a-tetradecahydro-2H-1,4a-(methanooxymethano)chrysene-7-carboxylic acid (fumaric acid salt)] are within 1.5-fold of each other in IC50: 17.1 nM for the first, 13.7 nM for the second.

`CC(=O)O[C@@H]1C[C@@]23COC[C@](C)([C@@H]2CC[C@H]2C3=CC(=O)[C@@]3(C)[C@H](C(=O)O)[C@@](C)([C@H](C)C(C)C)CC[C@]23C)[C@H]1OC[C@@](C)(C(C)C)N(C)C` [Example 153, (1S,2R,3R,4aR,6aS,7R,8R,10aR,10bR,12aR)-3-acetoxy-2-[[(2R)-2-dimethylamino-2,3-dimethylbutyl]oxy]-8-[(1R)-1,2-dimethylpropyl]-1,6a,8,10a-tetramethyl-6-oxo-1,3,4,6,6a,7,8,9,10,10a,10b,11,12,12a-tetradecahydro-2H-1,4a-(methanooxymethano)chrysene-7-carboxylic acid (fumaric acid salt)] showed an IC50 of 26.8 nM.

Reference: patent publication US7863465B2, “Antifungal agents” (Merck Sharp & Dohme Corp., priority 2006, dated 2011)
